Laboratory results taken from PubChem BioAssay AID328 (DTP/NCI, 2004).
“And” between values parts separate entries of the source, which are not always exact repeats. Equal values may be shown once. Inconclusive results and toxic doses are left out.

System: BDF1 mice, P388 leukemia ip, median survival T/C
Test: NCI In Vivo Anticancer Drug Screen. Data for tumor model P388 Leukemia (intraperitoneal) in B6D2F1 (BDF1) mice
Details: endpoint: median survival time, higher = longer survival
Procedure, shortened: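 Reported as T/C, where T is the survival measurement in dosed animals and C the same measurement in vehicle controls.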

[1] = dose: 20.0 mg/kg/injection, schedule: Q01DX009 (ip), vehicle: saline with Tween-80
[2] = dose: 1.0 mg/kg/injection, schedule: Q01DX009 (ip), vehicle: saline
[3] = dose: 100.0 mg/kg/injection, schedule: Q01DX009 (ip), vehicle: saline sonified

With `C[N+](C)(C)C.N=C=O.N=C=O.N=C=O.N=C=O.[Co+2]` as the compound, how does the T/C (dose: 2.5 mg/kg/injection, schedule: Q01DX009 (ip), vehicle: saline) read?
The T/C was 88 % of control.

What about the T/C (dose: 5.0 mg/kg/injection, schedule: Q01DX001 (ip), vehicle: other) of the same compound?
Its T/C is 86 % of control.

What about the T/C (dose: 5.0 mg/kg/injection, schedule: Q01DX009 (ip), vehicle: saline with Tween-80) of the same compound?
The T/C was 100 % of control.

What about the T/C (dose: 5.0 mg/kg/injection, schedule: Q04DX003 (ip), vehicle: saline with Tween-80) of the same compound?
Its T/C is 95 % of control.

What about the T/C (dose: 10.0 mg/kg/injection, schedule: Q01DX001 (ip), vehicle: other) of the same compound?
The T/C was 95 % of control.

What about the T/C (dose: 10.0 mg/kg/injection, schedule: Q01DX009 (ip), vehicle: saline with Tween-80) of the same compound?
The T/C was 115 % of control and 116 % of control.

And the T/C (dose: 10.0 mg/kg/injection, schedule: Q04DX003 (ip), vehicle: saline with Tween-80)?
The T/C was 109 % of control.

What about the T/C (dose: 20.0 mg/kg/injection, schedule: Q01DX001 (ip), vehicle: other) of the same compound?
Its T/C is 100 % of control.

And the T/C [1]?
Its T/C is 95 % of control and 115 % of control.

What about the T/C (dose: 20.0 mg/kg/injection, schedule: Q01DX009 (ip), vehicle: saline) of the same compound?
The T/C was 95 % of control.

And the T/C (dose: 20.0 mg/kg/injection, schedule: Q04DX003 (ip), vehicle: saline with Tween-80)?
The T/C was 95 % of control.

What about the T/C (dose: 40.0 mg/kg/injection, schedule: Q01DX009 (ip), vehicle: saline) of the same compound?
Its T/C is 117 % of control.

`[CH3][Sn]([CH3])([CH3])[S]C(=S)N1CCOCC1` was tested. Which T/C (dose: 0.75 mg/kg/injection, schedule: Q01DX009 (ip), vehicle: Klucel (hydroxypropylcellulose) (HPC)) did it give?
The T/C was 97 % of control.

Which T/C (dose: 10.0 mg/kg/injection, schedule: Q01DX010 (ip), vehicle: carboxymethylcellulose (CMC)) does the source give for `COc1ccc(-c2cc(=O)c3c(O)c(OC)c(O)cc3o2)cc1` here?
The T/C was 95 % of control.

What about the T/C (dose: 20.0 mg/kg/injection, schedule: Q01DX010 (ip), vehicle: carboxymethylcellulose (CMC)) of the same compound?
The T/C was 90 % of control.

And the T/C (dose: 80.0 mg/kg/injection, schedule: Q01DX010 (ip), vehicle: carboxymethylcellulose (CMC))?
Its T/C is 95 % of control.

What does the source list for `N[C@@H](Cc1ccc(N(CCCl)CCCl)cc1)C(=O)O`?
T/C (dose: 0.5 mg/kg/injection, schedule: Q01DX009 (ip), vehicle: saline): 167 % of control; T/C (dose: 0.5 mg/kg/injection, schedule: Q01DX010 (ip), vehicle: saline): 227 % of control; T/C [2]: 245 % of control and 188 % of control; T/C (dose: 1.0 mg/kg/injection, schedule: Q01DX010 (ip), vehicle: saline): 277 % of control; T/C (dose: 2.0 mg/kg/injection, schedule: Q01DX009 (ip), vehicle: saline): 237 % of control and 254 % of control; T/C (dose: 2.0 mg/kg/injection, schedule: Q01DX010 (ip), vehicle: saline): 300 % of control; T/C (dose: 2.5 mg/kg/injection, schedule: Q04DX003 (ip), vehicle: water): 205 % of control; T/C (dose: 3.6 mg/kg/injection, schedule: Q01DX001 (ip), vehicle: saline): 150 % of control and 181 % of control; T/C (dose: 4.0 mg/kg/injection, schedule: Q01DX009 (ip), vehicle: saline): 113 % of control; T/C (dose: 4.0 mg/kg/injection, schedule: Q01DX010 (ip), vehicle: saline): 113 % of control; T/C (dose: 4.0 mg/kg/injection, schedule: Q04DX003 (ip), vehicle: Klucel (hydroxypropylcellulose) (HPC)): 236 % of control; T/C (dose: 6.0 mg/kg/injection, schedule: Q01DX001 (ip), vehicle: saline): 167 % of control and 172 % of control; T/C (dose: 10.0 mg/kg/injection, schedule: Q01DX001 (ip), vehicle: Klucel (hydroxypropylcellulose) (HPC)): 227 % of control and 245 % of control; T/C (dose: 12.5 mg/kg/injection, schedule: Q01DX001 (ip), vehicle: Klucel (hydroxypropylcellulose) (HPC)): 240 % of control and 279 % of control; T/C (dose: 15.0 mg/kg/injection, schedule: Q01DX001 (ip), vehicle: Klucel (hydroxypropylcellulose) (HPC)): 295 % of control and 298 % of control; T/C (dose: 17.5 mg/kg/injection, schedule: Q01DX001 (ip), vehicle: Klucel (hydroxypropylcellulose) (HPC)): 286 % of control and 318 % of control; T/C (dose: 20.0 mg/kg/injection, schedule: Q01DX001 (ip), vehicle: Klucel (hydroxypropylcellulose) (HPC)): 254 % of control and 259 % of control; T/C (dose: 40.0 mg/kg/injection, schedule: Q04DX003 (ip), vehicle: water): 91 % of control and 96 % of control

With `Cc1ccccc1-c1nc2cc(Cl)ccc2c(=O)o1` as the compound, how does the T/C (dose: 25.0 mg/kg/injection, schedule: Q04DX003 (ip), vehicle: saline with Tween-80) read?
The T/C was 104 % of control.

And the T/C (dose: 50.0 mg/kg/injection, schedule: Q04DX003 (ip), vehicle: saline with Tween-80)?
Its T/C is 100 % of control.

And the T/C (dose: 100.0 mg/kg/injection, schedule: Q04DX003 (ip), vehicle: saline with Tween-80)?
The T/C was 109 % of control.

With `NC(=O)c1[nH]nc(C2OC(CO)C(O)C2O)c1O` (stereo unspecified) as the compound, how does the T/C (dose: 0.25 mg/kg/injection, schedule: Q01DX009 (ip), vehicle: saline) read?
The T/C was 116 % of control.

What about the T/C (dose: 0.5 mg/kg/injection, schedule: Q04DX003 (ip), vehicle: saline) of the same compound?
The T/C was 99 % of control and 100 % of control and 104 % of control.

And the T/C (dose: 0.62 mg/kg/injection, schedule: Q01DX009 (ip), vehicle: saline)?
The T/C was 100 % of control.

What about the T/C (dose: 0.63 mg/kg/injection, schedule: Q01DX009 (ip), vehicle: saline) of the same compound?
Its T/C is 113 % of control.

And the T/C [2]?
The T/C was 120 % of control.

And the T/C (dose: 1.0 mg/kg/injection, schedule: Q04DX003 (ip), vehicle: saline)?
The T/C was 103 % of control and 109 % of control.

And the T/C (dose: 1.25 mg/kg/injection, schedule: Q01DX009 (ip), vehicle: saline)?
The T/C was 100 % of control.

What about the T/C (dose: 2.0 mg/kg/injection, schedule: Q04DX003 (ip), vehicle: saline) of the same compound?
The T/C was 106 % of control and 108 % of control (2×).

What about the T/C (dose: 4.0 mg/kg/injection, schedule: Q04DX003 (ip), vehicle: saline) of the same compound?
Its T/C is 99 % of control and 115 % of control.

And the T/C (dose: 5.0 mg/kg/injection, schedule: Q04DX003 (ip), vehicle: saline)?
The T/C was 118 % of control.

And the T/C (dose: 8.0 mg/kg/injection, schedule: Q04DX003 (ip), vehicle: saline)?
The T/C was 100 % of control and 112 % of control and 123 % of control.

And the T/C (dose: 10.0 mg/kg/injection, schedule: Q04DX003 (ip), vehicle: saline)?
Its T/C is 107 % of control.

What about the T/C (dose: 16.0 mg/kg/injection, schedule: Q04DX003 (ip), vehicle: saline) of the same compound?
Its T/C is 123 % of control.

And the T/C (dose: 20.0 mg/kg/injection, schedule: Q04DX003 (ip), vehicle: saline)?
The T/C was 118 % of control.

For `CN(N=O)c1ccc(/C=C/c2ccnc3ccccc23)cc1`, which T/C [3] is on record?
The T/C was 115 % of control.

With `CC(=O)OCC(OC(C)=O)c1cc(/C=N/N(C(C)=O)c2ccccc2)nn1-c1ccccc1` (stereo unspecified) as the compound, how does the T/C (dose: 25.0 mg/kg/injection, schedule: Q01DX009 (ip), vehicle: saline with Tween-80) read?
The T/C was 101 % of control.

And the T/C (dose: 50.0 mg/kg/injection, schedule: Q01DX009 (ip), vehicle: saline with Tween-80)?
The T/C was 98 % of control.

What about the T/C (dose: 100.0 mg/kg/injection, schedule: Q01DX009 (ip), vehicle: saline with Tween-80) of the same compound?
The T/C was 96 % of control.

What does the source list for `c1ccc(C2CCCCCC2)cc1`?
T/C (dose: 100.0 mg/kg/injection, schedule: Q01DX009 (ip), vehicle: saline): 110 % of control; T/C (dose: 100.0 mg/kg/injection, schedule: Q04DX003 (ip), vehicle: saline): 100 % of control; T/C (dose: 166.0 mg/kg/injection, schedule: Q01DX009 (ip), vehicle: saline): 110 % of control; T/C (dose: 200.0 mg/kg/injection, schedule: Q01DX009 (ip), vehicle: saline): 105 % of control; T/C (dose: 200.0 mg/kg/injection, schedule: Q04DX003 (ip), vehicle: saline): 90 % of control; T/C (dose: 400.0 mg/kg/injection, schedule: Q04DX003 (ip), vehicle: saline): 100 % of control

How did the T/C (dose: 12.5 mg/kg/injection, schedule: Q01DX010 (sc), vehicle: steriod suspending solution) turn out when `C[C@]12C=CC(=O)C=C1CC[C@@H]1[C@@H]2[C@@H](O)C[C@@]2(C)[C@H]1CC[C@]2(O)C(=O)CO` was run?
Its T/C is 109 % of control and 120 % of control.

And the T/C (dose: 25.0 mg/kg/injection, schedule: Q01DX010 (sc), vehicle: steriod suspending solution)?
Its T/C is 109 % of control and 110 % of control.

What about the T/C (dose: 50.0 mg/kg/injection, schedule: Q01DX010 (sc), vehicle: steriod suspending solution) of the same compound?
The T/C was 113 % of control and 120 % of control.

What about the T/C (dose: 100.0 mg/kg/injection, schedule: Q01DX010 (sc), vehicle: steriod suspending solution) of the same compound?
Its T/C is 118 % of control and 120 % of control.

Which T/C (dose: 50.0 mg/kg/injection, schedule: Q01DX005 (ip), vehicle: suspension in saline) does the source give for `CC(C)C(NC(=O)CN)C(=O)OCCCCS(=O)(=O)c1ccc(CO)cc1` (stereo unspecified) here?
The T/C was 100 % of control.

What about the T/C (dose: 100.0 mg/kg/injection, schedule: Q01DX005 (ip), vehicle: suspension in saline) of the same compound?
The T/C was 100 % of control.

And the T/C (dose: 200.0 mg/kg/injection, schedule: Q01DX005 (ip), vehicle: suspension in saline)?
The T/C was 95 % of control.

For `COc1cc2cnc3c4cc5c(cc4ccc3c2cc1OC)OCO5`, which T/C [1] is on record?
The T/C was 95 % of control.

And the T/C (dose: 40.0 mg/kg/injection, schedule: Q01DX009 (ip), vehicle: saline with Tween-80)?
The T/C was 105 % of control.

What about the T/C (dose: 80.0 mg/kg/injection, schedule: Q01DX009 (ip), vehicle: saline with Tween-80) of the same compound?
Its T/C is 105 % of control.

And the T/C (dose: 120.0 mg/kg/injection, schedule: Q01DX009 (ip), vehicle: saline with Tween-80)?
Its T/C is 95 % of control.

And the T/C (dose: 240.0 mg/kg/injection, schedule: Q01DX009 (ip), vehicle: saline with Tween-80)?
The T/C was 110 % of control.

`ClCc1cccc(CCl)c1` was tested. Which T/C (dose: 50.0 mg/kg/injection, schedule: Q01DX009 (ip), vehicle: saline sonified) did it give?
Its T/C is 108 % of control.

What about the T/C [3] of the same compound?
Its T/C is 108 % of control.

What about the T/C (dose: 200.0 mg/kg/injection, schedule: Q01DX009 (ip), vehicle: saline sonified) of the same compound?
The T/C was 86 % of control.
